In patent publication US12679878B2, “CRF2 receptor agonists and their use in therapy” (SANOFI, priority 2020, dated 2026):
Like-named read-outs stand apart in the source and are kept apart here. Starred links: 1 amine or outer side, 2 acyl side, 3 side chain; linkers in the order of their positions; H or OH if unused. Non-standard residues stand in square brackets, D forms with d. Residues, ends and D or L forms follow the SMILES beside them. Groups on a side chain read outwards from the residue. *: point of attachment. C18 diacid = O=C(O)CCCCCCCCCCCCCCCCC(=O)*; γGlu = O=C(O)[C@H](CCC(=O)[*:2])N[*:1]; AEEA = NCCOCCOCC(=O)O; Aib = CC(C)(N)C(=O)O

Target: T1, human CRF2α receptor (Homo sapiens, UniProt Q13324)
T1 construct: expressed in transfected cells; host or cells: TeloHEAC
T1 sequence (Q13324 1-411): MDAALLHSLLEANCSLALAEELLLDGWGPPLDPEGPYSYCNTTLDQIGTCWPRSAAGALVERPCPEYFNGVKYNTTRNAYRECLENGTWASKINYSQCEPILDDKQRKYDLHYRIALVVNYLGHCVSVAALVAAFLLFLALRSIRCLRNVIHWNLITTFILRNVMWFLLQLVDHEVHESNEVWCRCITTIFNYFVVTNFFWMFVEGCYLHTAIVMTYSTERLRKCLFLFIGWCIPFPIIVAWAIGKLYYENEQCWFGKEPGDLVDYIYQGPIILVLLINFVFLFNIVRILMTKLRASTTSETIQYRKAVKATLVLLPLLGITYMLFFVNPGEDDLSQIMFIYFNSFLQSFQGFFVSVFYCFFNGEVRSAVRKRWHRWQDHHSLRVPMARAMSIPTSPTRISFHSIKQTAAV
Test: cAMP agonism at human CRF2 α receptor in TeloHEAC cells (Example 7)
Type: cell-based
Details: cAMP HTRF, TeloHEAC cells stably expressing human CRF2 α
In short: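 Cryopreserved cells are thawed, washed and resuspended in IBMX-containing (2 mM) HEPES-buffered HBSS with or without 0.1% HSA. Compound incubation runs 30 min at room temperature with 2000 cells per well, then cAMP is measured by time-resolved FRET. Potency is expressed as EC50, efficacy relative to urocortin 2 at 1000 nM.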

[1] = 0% HSA, read-out: EC50 [nM], 0% HSA
[2] = 0.1% HSA, read-out: EC50 [nM], 0.1% HSA

SMILES | EC50 [1] | EC50 [2]
CC[C@H](C)[C@H](N)C(=O)N[C@H](C(=O)N[C@@H](CC(C)C)C(=O)N[C@@H](CO)C(=O)N[C@@H](CC(C)C)C(=O)N[C@@H](CC(=O)O)C(=O)N[C@H](C(=O)N1CCC[C@H]1C(=O)N[C@H](C(=O)N[C@@H](CCCCN)C(=O)N[C@@H](CC(C)C)C(=O)N[C@@H](CCCCNC(=O)COCCOCCNC(=O)COCCOCCNC(=O)CC[C@H](NC(=O)CCCCCCCCCCCCCCCCC(=O)O)C(=O)O)C(=O)N[C@@H](CCC(N)=O)C(=O)N[C@H](C(=O)N[C@@H](CC(C)C)C(=O)N[C@@H](CC(C)C)C(=O)N[C@@H](CCC(=O)O)C(=O)N[C@@H](CCC(N)=O)C(=O)N[C@@H](CCC(=O)O)C(=O)N[C@@H](CCCNC(=N)N)C(=O)N[C@@H](CCC(N)=O)C(=O)N[C@@H](CCCCN)C(=O)N[C@@H](CCCCN)C(=O)N[C@@H](CCC(N)=O)C(=O)N[C@@H](CCCNC(=N)N)C(=O)N[C@@H](CCC(=O)O)C(=O)N[C@@H](CCC(N)=O)C(=O)N[C@@H](C)C(=O)N[C@@H](CCC(=O)O)C(=O)N[C@H](C(=O)N[C@@H](CC(N)=O)C(=O)NC(C)(C)C(=O)N[C@@H](CCC(N)=O)C(=O)N[C@H](C(=O)N[C@@H](CC(C)C)C(=O)N[C@@H](CCC(=O)O)C(=O)N[C@@H](CCCNC(=N)N)C(=O)N[C@H](C(N)=O)C(C)C)[C@@H](C)CC)[C@@H](C)O)[C@@H](C)CC)[C@@H](C)CC)C(C)C)C(C)C [compound 74] (H-IVLSLDVPIKLK([AEEA-AEEA-γGlu-C18 diacid])QILLEQERQKKQREQAETN[Aib]QILERV-NH2) | 2.12 nM | 
CC[C@H](C)[C@H](N)C(=O)N[C@H](C(=O)N[C@@H](CC(C)C)C(=O)N[C@@H](CO)C(=O)N[C@@H](CC(C)C)C(=O)N[C@@H](CC(=O)O)C(=O)N[C@H](C(=O)N1CCC[C@H]1C(=O)N[C@H](C(=O)N[C@@H](CCCCN)C(=O)N[C@@H](CC(C)C)C(=O)N[C@@H](CCCCNC(=O)COCCOCCNC(=O)COCCOCCNC(=O)CC[C@H](NC(=O)CCCCCCCCCCCCCCCCC(=O)O)C(=O)O)C(=O)N[C@@H](CCC(N)=O)C(=O)N[C@H](C(=O)N[C@@H](CC(C)C)C(=O)N[C@@H](CC(C)C)C(=O)N[C@@H](CCCCN)C(=O)N[C@@H](CCC(N)=O)C(=O)N[C@@H](CCC(=O)O)C(=O)N[C@@H](CCCNC(=N)N)C(=O)N[C@@H](CCC(N)=O)C(=O)N[C@@H](CCCCN)C(=O)N[C@@H](CCCCN)C(=O)NC(C)(C)C(=O)N[C@@H](CCCNC(=N)N)C(=O)N[C@@H](CCC(=O)O)C(=O)N[C@@H](CCC(N)=O)C(=O)N[C@@H](C)C(=O)N[C@@H](CCC(=O)O)C(=O)N[C@H](C(=O)N[C@@H](CC(N)=O)C(=O)N[C@H](C(=O)N[C@@H](CCCNC(=N)N)C(=O)N[C@H](C(=O)N[C@@H](CC(C)C)C(=O)N[C@@H](CCC(=O)O)C(=O)N[C@@H](CCCNC(=N)N)C(=O)N[C@H](C(N)=O)C(C)C)[C@@H](C)CC)C(C)C)[C@@H](C)O)[C@@H](C)CC)[C@@H](C)O)C(C)C)C(C)C [compound 82] (H-IVLSLDVPTKLK([AEEA-AEEA-γGlu-C18 diacid])QILLKQERQKK[Aib]REQAETNVRILERV-NH2) | 10.1 nM | 
CC[C@H](C)[C@H](N)C(=O)N[C@H](C(=O)N[C@@H](CC(C)C)C(=O)N[C@@H](CO)C(=O)N[C@@H](CC(C)C)C(=O)N[C@@H](CC(=O)O)C(=O)N[C@H](C(=O)N1CCC[C@H]1C(=O)N[C@H](C(=O)N[C@@H](CCCCN)C(=O)N[C@@H](CC(C)C)C(=O)N[C@@H](CCCCNC(=O)COCCOCCNC(=O)COCCOCCNC(=O)CC[C@H](NC(=O)CCCCCCCCCCCCCCCCC(=O)O)C(=O)O)C(=O)N[C@@H](CCC(N)=O)C(=O)N[C@@H](CCCCN)C(=O)N[C@@H](CC(C)C)C(=O)N[C@@H](CC(C)C)C(=O)N[C@@H](CCC(=O)O)C(=O)N[C@@H](CCC(N)=O)C(=O)N[C@@H](CCC(=O)O)C(=O)N[C@@H](CCCCN)C(=O)N[C@@H](CCC(N)=O)C(=O)N[C@@H](CCCCN)C(=O)N[C@@H](CCCCN)C(=O)N[C@@H](CCC(N)=O)C(=O)N[C@@H](CCCNC(=N)N)C(=O)N[C@@H](CCC(=O)O)C(=O)N[C@@H](CCC(N)=O)C(=O)N[C@@H](C)C(=O)N[C@@H](CCC(=O)O)C(=O)N[C@H](C(=O)N[C@@H](CC(N)=O)C(=O)N[C@@H](CCCCN)C(=O)N[C@@H](CCC(N)=O)C(=O)N[C@H](C(=O)N[C@@H](CC(C)C)C(=O)N[C@@H](C)C(=O)N[C@@H](CCC(N)=O)C(=O)N[C@H](C(N)=O)C(C)C)[C@@H](C)CC)[C@@H](C)O)[C@@H](C)CC)C(C)C)C(C)C [compound 84] (H-IVLSLDVPIKLK([AEEA-AEEA-γGlu-C18 diacid])QKLLEQEKQKKQREQAETNKQILAQV-NH2; N-terminus assumed) | 1.85 nM | 61.7 nM
CC[C@H](C)[C@H](N)C(=O)N[C@H](C(=O)N[C@@H](CC(C)C)C(=O)N[C@@H](CO)C(=O)N[C@@H](CC(C)C)C(=O)N[C@@H](CC(=O)O)C(=O)N[C@H](C(=O)N1CCC[C@H]1C(=O)N[C@H](C(=O)N[C@@H](CCCCN)C(=O)N[C@@H](CC(C)C)C(=O)N[C@@H](CCCCNC(=O)COCCOCCNC(=O)COCCOCCNC(=O)CC[C@H](NC(=O)CCCCCCCCCCCCCCCCC(=O)O)C(=O)O)C(=O)N[C@@H](CCC(N)=O)C(=O)N[C@H](C(=O)N[C@@H](CC(C)C)C(=O)N[C@@H](CC(C)C)C(=O)N[C@@H](CCCCN)C(=O)N[C@@H](CCC(N)=O)C(=O)N[C@@H](CCC(=O)O)C(=O)N[C@@H](CCCNC(=N)N)C(=O)N[C@@H](CCC(N)=O)C(=O)N[C@@H](CCCCN)C(=O)N[C@@H](CCCCN)C(=O)N[C@@H](CCC(N)=O)C(=O)N[C@@H](CCCNC(=N)N)C(=O)N[C@@H](CCC(=O)O)C(=O)N[C@@H](CCCCN)C(=O)N[C@@H](C)C(=O)N[C@@H](CCCCN)C(=O)N[C@H](C(=O)N[C@@H](CC(N)=O)C(=O)N[C@H](C(=O)N[C@@H](CCC(N)=O)C(=O)N[C@H](C(=O)N[C@@H](CC(C)C)C(=O)N[C@@H](C)C(=O)N[C@@H](CCC(N)=O)C(=O)N[C@H](C(N)=O)C(C)C)[C@@H](C)CC)C(C)C)[C@@H](C)O)[C@@H](C)CC)[C@@H](C)CC)C(C)C)C(C)C [compound 90] (H-IVLSLDVPIKLK([AEEA-AEEA-γGlu-C18 diacid])QILLKQERQKKQREKAKTNVQILAQV-NH2; N-terminus assumed) | 3.91 nM | 92.6 nM

Now from value to compound:

EC50 [1] | EC50 [2] | SMILES
13.4 nM |  | CC[C@H](C)[C@H](N)C(=O)N[C@H](C(=O)N[C@@H](CC(C)C)C(=O)N[C@@H](CO)C(=O)N[C@@H](CC(C)C)C(=O)N[C@@H](CC(=O)O)C(=O)N[C@H](C(=O)N1CCC[C@H]1C(=O)N[C@H](C(=O)NCC(=O)N[C@@H](CC(C)C)C(=O)N[C@@H](CCCCNC(=O)COCCOCCNC(=O)COCCOCCNC(=O)CC[C@H](NC(=O)CCCCCCCCCCCCCCCCC(=O)O)C(=O)O)C(=O)N[C@@H](CCC(N)=O)C(=O)N[C@H](C(=O)N[C@@H](CC(C)C)C(=O)N[C@@H](CC(C)C)C(=O)N[C@@H](CCC(=O)O)C(=O)N[C@@H](CCC(N)=O)C(=O)N[C@@H](CCC(=O)O)C(=O)N[C@@H](CCCNC(=N)N)C(=O)N[C@@H](CCC(N)=O)C(=O)N[C@@H](CCCCN)C(=O)N[C@@H](CCCCN)C(=O)N[C@@H](CCC(N)=O)C(=O)N[C@@H](CCCNC(=N)N)C(=O)N[C@@H](CCC(N)=O)C(=O)N[C@@H](CCC(N)=O)C(=O)N[C@@H](C)C(=O)N[C@@H](CCC(=O)O)C(=O)N[C@H](C(=O)N[C@@H](CC(N)=O)C(=O)NC(C)(C)C(=O)N[C@@H](CCC(N)=O)C(=O)N[C@H](C(=O)N[C@@H](CC(C)C)C(=O)N[C@@H](C)C(=O)N[C@@H](CCC(N)=O)C(=O)N[C@H](C(N)=O)C(C)C)[C@@H](C)CC)[C@@H](C)O)[C@@H](C)CC)[C@@H](C)CC)C(C)C)C(C)C [compound 76] (H-IVLSLDVPIGLK([AEEA-AEEA-γGlu-C18 diacid])QILLEQERQKKQRQQAETN[Aib]QILAQV-NH2)
10.6 nM |  | CC[C@H](C)[C@H](N)C(=O)N[C@H](C(=O)N[C@@H](CC(C)C)C(=O)N[C@@H](CO)C(=O)N[C@@H](CC(C)C)C(=O)N[C@@H](CC(=O)O)C(=O)N[C@H](C(=O)N1CCC[C@H]1C(=O)N[C@H](C(=O)N[C@@H](CCCCN)C(=O)N[C@@H](CC(C)C)C(=O)N[C@@H](CCCCNC(=O)COCCOCCNC(=O)COCCOCCNC(=O)CC[C@H](NC(=O)CCCCCCCCCCCCCCCCC(=O)O)C(=O)O)C(=O)N[C@@H](CCC(N)=O)C(=O)N[C@H](C(=O)N[C@@H](CC(C)C)C(=O)N[C@@H](CC(C)C)C(=O)N[C@@H](CCC(=O)O)C(=O)N[C@@H](CCC(N)=O)C(=O)N[C@@H](CCC(=O)O)C(=O)N[C@@H](CCCNC(=N)N)C(=O)N[C@@H](CCC(N)=O)C(=O)N[C@@H](CCCCN)C(=O)N[C@@H](CCCCN)C(=O)N[C@@H](CCC(N)=O)C(=O)N[C@@H](CCCNC(=N)N)C(=O)N[C@@H](CCC(=O)O)C(=O)N[C@@H](CCC(N)=O)C(=O)N[C@@H](C)C(=O)N[C@@H](CCC(=O)O)C(=O)N[C@H](C(=O)N[C@@H](CC(N)=O)C(=O)NC(C)(C)C(=O)N[C@@H](CCC(N)=O)C(=O)N[C@H](C(=O)N[C@@H](CC(C)C)C(=O)N[C@@H](C)C(=O)N[C@@H](CCC(N)=O)C(=O)N[C@H](C(N)=O)C(C)C)[C@@H](C)CC)[C@@H](C)O)[C@@H](C)CC)[C@@H](C)O)C(C)C)C(C)C [compound 78] (H-IVLSLDVPTKLK([AEEA-AEEA-γGlu-C18 diacid])QILLEQERQKKQREQAETN[Aib]QILAQV-NH2)
